Assay results from US20230137216A1, “Stabilization of Pharmaceutical Compositions Comprising Polysorbate” (LEK Pharmaceuticals d.d., priority 2020, published 2023).
Entries after “also recorded” stand apart in the source; their conditions may differ.

Tests used:
[1] = Accelerated stability testing of PS20 (polysorbate content by mixed-mode chromatography with CAD)
Experimental: (§1) PS20 or PS80 obtained from different manufacturers (see Table 1) was dissolved in 20 mM aqueous buffer at pH 5.5 or 6.5 in a glass vial to a final concentration of 0.02% (w/v) polysorbate. The buffer salts used in the histidine buffers investigated were histidine chloride (HisCl) and various further histidine buffer salts (see below, all obtained from Sigma-Aldrich (now Merck KgaA)).
(§2) Degradation mechanisms of the polysorbates were explored using 20 mM imidazole chloride and 20 mM alanine chloride buffer salts. Also, HisCl buffer salt comprising solutions were prepared with the additional excipients of mannitol or trehalose (both Sigma-Aldrich) to determine the influence of sugars and their derivatives on polysorbate degradation. Finally, two different mAbs were used as the active agent that each contained 10 mg/mL mAb, 0.02% PS80 HX2 and 20 mM HisCl buffer salt at pH 6.5. The therapeutic protein solutions were provided by Lek d.d. (Mengeš, Slovenia). In all cases, the starting point samples were collected immediately and stored at −80° C. The vials were then placed into a 50° C. incubator for up to 2 months, with samples collected at 1 month and further samples in some cases at 2 months. All of these samples were stored at −80° C. for subsequent analysis.
(§3) The polysorbate contents were analysed and quantified using a method based on mixed-mode chromatography, as mixed anion exchange and reversed phase, combined with a charged aerosol detector (CAD). The external standard approach was used for quantification of the surfactants. Chromatographic analysis was carried out using the method of Hewitt et al. (Hewitt, D. et al. J. Chromatogr. A 1218, 2138-2145 (2011).
(§4) Analytes were separated using a Waters Oasis MAX column (30 μm particle size, 2.1 mm×20 mm), column temperature 30° C., flow rate 1 ml/min and a total run time of 10 min. The injection volume was 10 μL. Initial conditions were set at 90% solvent A (2% formic acid in purified water) and 10% solvent B (2% formic acid in isopropanol). Solvent B was increased to 20% in the first minute and held for 2.4 min. POE sorbitan esters were eluted using a step gradient of 20% to 100% B over 0.1 min, followed by an equilibration step of 10% B for 0.9 min.

[2] = Accelerated stability testing of PS80 HX2 (polysorbate content by mixed-mode chromatography with CAD); conditions: for degradation of PS80 HX2 in the presence of mAb1 / degradation of PS80 HX2 in the presence of mAb2: pH 6.5; for degradation of polysorbate 80 HX2: 0.02% w/v PS80 HX2, 20 mM histidine buffer salt, pH 6.5, 50° C.
Experimental: as §1, §2, §3, §4

[3] = Accelerated stability testing of PS80 (polysorbate content by mixed-mode chromatography with CAD)
Experimental: as §1, §2, §3, §4

[4] = as reported in prior work; cited from earlier work
[5] = 0.02% w/v PS20, 20 mM histidine chloride, pH 6.5, 50° C., 1 month
[6] = 0.02% w/v PS80, 20 mM histidine chloride, pH 6.5, 50° C., 1 month

N[C@@H](Cc1c[nH]cn1)C(=O)O.O=C(O)CC(O)C(=O)O [histidine malate]
degradation of PS20 (Merck) ([1]; pH 5.5): significantly less degradation
degradation of PS80 HX2 in the presence of mAb1 [2]: no significant degradation
degradation of PS80 HX2 in the presence of mAb2 [2]: no significant degradation
degradation of PS80 (Merck) ([3]; pH 5.5): significantly less degradation

histidine chloride [reference compound]
degradation of PS20 ([1]; pH 5.5): severe degradation
degradation of PS20 (Merck) ([1]; pH 5.5): showed degradation
degradation of PS80 HX2 in the presence of mAb1 [2]: significant degradation
degradation of PS80 HX2 in the presence of mAb2 [2]: significant degradation
degradation of PS80 ([3]; pH 5.5): severe degradation
degradation of PS80 (Merck) ([3]; pH 5.5): showed degradation

[Cl-].[Na+] [NaCl]
effect of added excipient on degradation of PS20 [1, 5]: did not slow down the degradation
effect of added excipient on degradation of PS80 [3, 6]: did not slow down the degradation

Cl.c1c[nH]cn1 [imidazole chloride]
degradation of PS80 HX2 ([2]; 0.02% w/v PS80 HX2, 20 mM buffer salt, AlaCl pH 5.0 or 6.0, ImiCl pH 5.0, 6.5 or 7.0, 50° C., 1 month): degraded almost entirely; also recorded: Polysorbate degradation was detected

polyoxyethylene (20) sorbitan monooleate [PS80]
rate of degradation compared with PS20 samples from the same manufacturer ([3]; pH 5.5): generally degrading faster

alanine chloride
degradation of PS80 HX2 ([2]; pH 5): no degradation

N[C@@H](Cc1cnc[nH]1)C(=O)O.O=C(O)CCC(=O)C(=O)O [histidine α-ketoglutarate]
degradation of polysorbate 80 HX2 ([2]; 1 month): major to almost complete degradation

OC[C@@H](O)[C@@H](O)[C@H](O)[C@H](O)CO [mannitol]
effect of added excipient on degradation of PS20 ([1]; pH 6.5): did not slow down the degradation
effect of added excipient on degradation of PS80 ([3]; pH 6.5): did not slow down the degradation

O=C(O)CN(CCN(CC(=O)O)CC(=O)O)CC(=O)O [EDTA]
effect of added excipient on degradation of PS20 [1, 5]: did not slow down the degradation
effect of added excipient on degradation of PS80 [3, 6]: did not slow down the degradation

OC[C@H]1O[C@H](O[C@H]2O[C@H](CO)[C@@H](O)[C@H](O)[C@H]2O)[C@H](O)[C@@H](O)[C@@H]1O [trehalose]
effect of added excipient on degradation of PS20 ([1]; pH 6.5): did not slow down the degradation
effect of added excipient on degradation of PS80 ([3]; pH 6.5): did not slow down the degradation

histidine glutarate
degradation of polysorbate 80 HX2 ([2]; 1 month): major to almost complete degradation

CC(=O)O.N[C@@H](Cc1c[nH]cn1)C(=O)O [histidine acetate]
oxidative degradation in buffer system of histidine and histidine acetate [4]: promoted oxidative degradation
